Assay results taken from patent US20020002294A1, “Estrogenic compounds as antiangiogenic agents” (priority 1997, published 2002).

Key:
tubulin [1] = test: inhibition of [3H]colchicine binding to tubulin; conditions: 1.0 μM tubulin, 10 min at 37° C.
Protocol: Incubation was for 10 min. at 37° C.
Incubation was for 10 mi. at 37° C. Average values obtained in three independent experiments are presented in the table, except for 2-methoxyestrone, which was only examined twice. S.D., standard deviation.

Melanoma cell lines = test: Human Tumor Cell Panel Assay in vitro, melanoma panel; type: cell-based; set-up: key: Most sensitive cell panes are marked with ✓
Excerpt: (§1) The tubulin activities, breast cancer cell line activities, and the cell panels most sensitive to selected analogs are shown in Tables 3 and 4.

CNS cell lines = test: Human Tumor Cell Panel Assay in vitro, CNS panel; type: cell-based; set-up: key: Most sensitive cell panes are marked with ✓
Excerpt: as §1

tubulin [2] = test: inhibition of tubulin polymerization in vitro (turbidity at 350 nm); type: biochemical
Protocol: Anti-mitotic activity can be evaluated by testing the ability of an estradiol derivative to inhibit tubulin polymerization and microtubule assembly in vitro. Microtubule assembly is followed in a Gilford recording spectrophotometer (model 250 or 2400S) equipped with electronic temperature controllers. A reaction mixture (all concentrations refer to a final reaction volume of […]) contains 1.0 M monosodium glutamate (ph 6.6), 1. omg/ml (10 μM) tubulin, 1.0 mM MgCl2, 4% (v/v) dimethylsulfoxide and 20-75μM of a composition to be tested. The 0.24 ml reaction mixtures are incubated for 15 min. at 37° C. and then chilled on ice. After addition of 10p1 2.5mM GTP, the reaction mixture is transferred to a cuvette at 0° C., and a baseline established. At time zero, the temperature controller of the spectrophotometer is set at 37° C. Microtubule assembly is evaluated by increased turbity at 350 nm.
A. Each reaction mixture (all concentrations refer to the final reaction volume of 0.25 ml) contained 1.0 M monosodium glutamate (pH 6.6), 1.0 mg/ml (10 μM) tubulin, 1.0 mM MgCl2, 4% (v/v) dimethylsulfoxide, and either 0 (curve 1), 20μM (curve 2), 40 μM (curve 3), or 75 μM (curve 4) 2-methoxyestradiol. The 0.24 ml reaction mixtures were incubated for 15 min. at 37° C and chilled on ice. After addition of 10 μl of 2.5 mM GTP the reaction mixtures were transferred to cuvettes held at 0° C., and baselines were established. At time zero the temperature controller was set at 37° C. At the times indicated by the vertical dashed lines the temperature controller was set at the indicated temperatures.
B. Each reaction mixture contained 0.8 M monosodium glutamate (pH 6.6), 1.2 mg/ml (12 μM) tubulin, 4% (v/v) dimethylsulfoxide, and either 0 (curve 1), 1.0 FM (curve 2), 2.0 ,M (curve 3), 3.0 μM (curve 4), or 4.0 μM (curve 5) 2-methoxyestradiol. The 0.24 ml reaction mixtures were incubated for 15 min. at 26° C. and chilled on ice. After addition of 10μl of 10 mM GTP the reaction mixtures were transferred to cuvettes held at 0° C., and baselines were established. At time zero the temperature controller was set at 26° C. At the time indicated by vertical dashed line the temperature controller was set at 0° C.
The method is given in Example 1.
S.D., standard deviation.

tubulin [3] = test: tubulin activities of 2-ME analogs (Table 3); type: biochemical
[4] = molecular target: T1, rat uterine cytosolic estrogen receptor (Rattus norvegicus, UniProt P06211); test: Relative Binding Affinity to estrogen receptor; conditions: at 0°; 3H-Estradiol=100
T1 construct: from tissue; host or cells: rat uterine cytosol (per the result head)
T1 sequence (P06211 1-600): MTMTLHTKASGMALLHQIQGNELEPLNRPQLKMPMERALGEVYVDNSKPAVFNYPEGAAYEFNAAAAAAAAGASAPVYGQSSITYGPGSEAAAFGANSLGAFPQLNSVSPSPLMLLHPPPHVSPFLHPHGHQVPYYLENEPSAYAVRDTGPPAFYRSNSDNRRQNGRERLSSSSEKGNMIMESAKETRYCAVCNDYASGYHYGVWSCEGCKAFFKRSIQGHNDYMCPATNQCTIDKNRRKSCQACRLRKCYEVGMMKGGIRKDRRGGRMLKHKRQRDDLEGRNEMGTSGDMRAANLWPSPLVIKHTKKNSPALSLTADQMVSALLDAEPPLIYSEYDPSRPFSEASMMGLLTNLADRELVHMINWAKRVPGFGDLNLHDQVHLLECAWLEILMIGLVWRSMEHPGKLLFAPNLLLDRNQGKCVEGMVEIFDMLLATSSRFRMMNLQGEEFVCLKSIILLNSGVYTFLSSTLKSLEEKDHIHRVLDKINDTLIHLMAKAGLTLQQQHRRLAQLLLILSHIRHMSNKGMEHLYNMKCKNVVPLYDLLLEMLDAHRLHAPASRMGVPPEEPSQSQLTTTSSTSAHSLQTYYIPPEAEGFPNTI
Excerpt: as §1

[5] = tested on: Ovarian cell lines (especially OVCAR-3); test: Human Tumor Cell Panel Assay in vitro, ovarian panel; type: cell-based; set-up: key: Most sensitive cell panes are marked with ✓
Excerpt: as §1

[6] = tested on: 8 human breast cancer cell lines; test: human tumor cell panel assay in vitro, breast panel; type: cell-based; set-up: key to Most Sensitive Cell Lines in Human Tumor Cell Panel Assay: Breast: Most sensitive cell panes are marked with ✓
Excerpt: as §1

[7] = tested on: new blood vessel cells (angiogenesis); test: chick embryo chorioallantoic membrane (CAM) assay; type: in vivo; conditions: 100 mg disk, after 48 hours
Protocol: A suitable assay is the chick embryo chorioallantoic membrane (CAM) assay described by Crum et al. Science 230:1375 (1985). See also, U.S. Pat. No. 5,001,116, hereby incorporated by reference, which describes the CAM assay. Briefly, fertilized chick embryos are removed from their shell on day 3 or 4, and a methylcellulose disc containing the drug is implanted on the chorioallantoic membrane. The embryos are examined 48 hours later and, if a clear avascular zone appears around the methylcellulose disc, the diameter of that zone is measured.

COc1cc2c(cc1O)CCC1C2CCC2(C)C(O)CCC12 (stereo not drawn) [NSC 659853, 2-Methoxyestradiol]
inhibition of colchicine binding to tubulin (FIG. 2), in words (tubulin [1]; 5 μM [3H]colchicine): inhibits colchicine binding to tubulin | Percentage Inhibition of colchicine binding to tubulin (tubulin [1]; 100 μM inhibitor, 2 μM [3H]colchicine, ± S.D.): 82 ± 2% | Most Sensitive Cell Lines in Human Tumor Cell Panel Assay: Melanoma (Melanoma cell lines): ✓ | Most Sensitive Cell Lines in Human Tumor Cell Panel Assay: CNS (CNS cell lines): ✓ | inhibition of tubulin polymerization (FIG. 1), in words (tubulin [2]; 20-75 μM (A) or 1.0-4.0 μM (B) 2-methoxyestradiol): inhibition of tubulin polymerization | IC50 (tubulin [2]; read-out: IC50 (concentration required to inhibit tubulin polymerization by 50%), mean ± S.D., method of Example 1): 1900 ± 200 nM | IC50 (tubulin [3]): 3600 ± 400 nM | RBA, Relative Binding Affinity to rat uterine cytosolic estrogen receptor [4]: 0.245 | Most Sensitive Cell Lines in Human Tumor Cell Panel Assay: Ovarian [5]: ✓ | Most Sensitive Cell Lines in Human Tumor Cell Panel Assay: Breast ([6]; 8 cell lines, only MCF-7 and T-47D express estrogen and progesterone receptors): ✓ | IC50 ([6]; Homo sapiens, cell panel assay in vitro, two values per cell separated by /, read-out: Tumor Panel: Average log IC50(Molar) against 8 human breast cancer cell lines (converted)): 234 nM | inhibition of cell mitosis and growth of new blood vessels in CAM assay [7]: found to inhibit cell mitosis and the growth of new blood vessels
